Publication PMC12389022, “Drug Metabolism and Pharmacokinetic Evaluation of a Novel RNase H2 Inhibitor for the Treatment of Triple-Negative Breast Cancer” (Pharmaceutics, 2025)
In brackets after ≈: the same amount, converted by molar mass. Read-outs that look alike come from different tables or passages of the source.

Tests used:
[1] = Pharmacokinetics of R14 in rats after i.v. and oral dose; format: in vivo, Sprague Dawley rats; details: for AUC(0-t): read-out: AUC0→10h
Procedure: This study was carried out in accordance with the recommendation of the Guidelines for the Care and Use of Laboratory Animals (2011) and was in compliance with the ARRIVE guidelines. All animal experiments were conducted with prior approval from the Texas Southern University Institutional Animal Care and Use Committee (IACUC). Male adult SD rats (250–350 g) were purchased from Envigo RMS (Indianapolis, IN, USA) and were housed in standard rodent cages (3–4 rats per cage) with a 12 h light/dark cycle at 22–24 °C and had free access to standard laboratory rodent chow (7012 Teklad mouse/rat diet from Envego, Inc., Indianapolis, IN, USA) and water. Rats were acclimated to the animal care facility for at least 7 days before the start of each experiment. Only male rats were used in the present study to minimize pharmacokinetic variations due to sex differences.
To facilitate the timed withdrawal of multiple blood samples from each animal, the right jugular vein of each animal was cannulated one day prior to drug administration. The cannulas were flushed daily with 0.5 mL of sterile heparinized saline (100 units/mL). Under anesthesia using a cocktail of ketamine/acetopromazine/xylazine (50:3.3:3.3 mg/kg ip), silicone elastomer tubing (0.02 × 0.037 in) was inserted into the jugular vein, secured with a silk suture, and exteriorized in the dorsal intrascapular area. The surgical incision was prophylactically treated with nitrofurazone wound powder and closed with surgical staples.
(§1) For the oral pharmacokinetics of R14, rats were fasted overnight and 4 h post-administration of 50 mg/kg oral dose of R14, with free access to water in metabolic cages. Serial blood samples (0.15 mL each) were collected from the cannulated jugular vein into heparin-coating tubes before dosing and at 5 min, 15 min, 30 min, 45 min, 1 h, 2 h, 3 h, 4 h, 6 h, 8 h, 10 h, and 24 h time points post dose. Plasma samples were separated immediately by centrifugation of the blood samples at 13,000 rpm for 3 min. For R14 quantification, 10 μL plasma aliquots were mixed with 30 μL of a stabilizing derivatization solution (0.1 M citric acid and 0.1 M sodium sulfite) and stored at −80 °C for analysis by UHPLC-MS/MS. For metabolite identification, 20 μL plasma aliquots were mixed with 80 μL acetonitrile containing 0.5% formic acid and stored at −80 °C for UHPLC-QTOF MS/MS analysis. Urine samples were collected over 0–24 h and stored at −80 °C.
For the intravenous (i.v.) pharmacokinetics of R14, another group of jugular vein cannulated rats received an i.v. administered 5 mg/kg R14 dose. Serial blood samples (0.15 mL each) were collected from the cannulated jugular vein into heparin-coating tubes before dosing and at 2 min, 5 min, 10 min, 30 min, 45 min, 1 h, 2 h, 4 h, 6 h, 8 h, 10 h, and 24 h time points post-dose. Plasma was processed similarly, with aliquots prepared for both R14 quantification and metabolite analysis, and urine collected over 24 h and stored at −80 °C.
The urine sample (10 μL each) was pre-mixed with 30 µL of derivatization agent (also acting as stabilizing agent). Pre-mixed plasma samples (with the derivation agent before storage) or the pre-mixed urine samples were added to 360 µL of acetonitrile (containing 2.5 ng/mL warfarin), vortexed for 2 min, and then centrifuged for 20 min. The supernatant (80 μL) was mixed with 160 µL of acetonitrile containing 0.5% formic acid, and finally, 100 μL aliquot of the mixture was transferred to a sample vial for UHPLC-MS/MS analysis.
R14 quantification via monitoring R14 bisulfite was conducted using a previously published method on a 6500+ Triple Quad UHPLC-MS/MS System (SCIEX, Framingham, MA, USA) coupled with a Synergi Fusion-RP column (50 × 2 mm, 4 µm, 80 Å, Phenomenex Inc., Torrance, CA, USA). […]

[2] = Metabolite identification and relative exposure in rat plasma and urine (UHPLC-QTOF MS/MS); format: in vivo, Sprague Dawley rats; details: for Cumulative excretion in 24 h urine as fraction of total amount of R14 and its metabolites: rat urine 0-24 h, peak area x urine volume; for Source P (detected in plasma): rat plasma after single oral dose of 50 mg/kg R14; for Source U (detected in urine): rat urine 0-24 h after single oral dose of 50 mg/kg R14
Procedure: as §1
Twenty microliters of urine were mixed with 80 µL of methanol containing 0.5% formic acid, vortexed for 2 min, and centrifuged for 20 min. An 80 µL Aliquot of the supernatant was transferred to a sample vial for metabolite identification using UHPLC-QTOF MS/MS.
(§2) Samples from in vivo pharmacokinetic studies, in vitro blood stability studies, and in vitro hepatic microsome studies were pretreated at the time of collection. Before analysis, the samples were thawed at room temperature, vortexed for 2 min, and centrifuged at 14,000 rpm for 20 min. An 80 µL aliquot of the supernatant was transferred to a sample vial for UHPLC-QTOF MS/MS analysis.
Metabolite identification was performed on a UHPLC-X500B QTOF MS/MS (SCIEX, Framingham, MA, USA) equipped with a Synergi Fusion-RP column (4 µm, 150 × 2 mm, 80 Å, Phenomenex, Torrance, CA, USA). The mobile phases were water with 0.1% formic acid (A) and methanol with 0.1% formic acid (B), delivered at a flow rate of 0.4 mL/min. The autosampler and oven temperatures were set at 10 °C and 30 °C, respectively. The running time was 30 min. The gradient elution was as follows: 10% B for 0.5 min; increased to 70% over 20 min; then to 95% over 2 min; held at 95% for 5 min; returned to 10% in 0.5 min; and equilibrated for 2 min.
The QTOF MS/MS was operated In positive ion mode. Data were acquired in Information-dependent-acquisition (IDA) mode, starting with a TOF MS survey scan to detect precursor ions, followed by MS/MS scans of the top 10 most intense ions (intensity > 200 counts/s). TOF MS was set to scan m/z 200–700 with a 0.1 s accumulation time, while TOF MS/MS scanned m/z 50–700 with a 0.04 s accumulation time. The source temperature and spray voltage were set at 500 °C, and 5000 v, respectively. Curtain gas and collision gas (CAD) were set at 30 and 9 psi, while nebulizer gas (gas 1) and heater gas (gas 2) were set at 55 and 60 psi, respectively. The declustering potential (DP) was 50 V. Collision energy (CE) were 10 v for TOF MS and 35 v (±15 v spread) for TOF MS/MS. Data were acquired using SCIEX OS software 1.6.1, and processed on SCIEX OS software 3.1.0.
To elucidate the metabolic pathways and identify unknown metabolites of R14, we employed a multi-step strategy. First, MS/MS fragmentation analysis was performed to characterize the fragmentation pattern of R14 and identify its key fragment ions, which served as references for metabolite identification. Next, based on the chemical structure of R14, potential biotransformation pathways mediated by hepatic cytochrome P450 enzymes were predicted. These predicted metabolites were then screened in urine samples collected during in vivo pharmacokinetic studies to identify excreted metabolites. Metabolites detected in urine were subsequently cross-verified in plasma samples from the same in vivo studies. If verification failed or additional metabolites were suspected, the analysis reverted to the initial fragmentation step to identify downstream or daughter metabolites. […]

[3] = R14 permeability in the Caco-2 cell culture model; format: in vitro ADME; details: human, Caco-2, R14 10 µM
Procedure: (§3) The permeability of R14 was assessed using the Caco-2 cell monolayer model, following the protocol by Liu and Hu (Liu 2002). Caco-2 cells (2.5 × 10^5 cells per insert; 4.2 cm^2 area, 3 μm pore size) were seeded and cultured at 37 °C with 90% humidity and 5% CO2 for 19–22 days. Monolayer integrity was evaluated using transepithelial electrical resistance (TEER) measurements with a Millicell ERS-2 system. Only monolayers with TEER values between 500 and 750 Ω·cm^2 were used.
(§4) Hank’s Balanced Salt Solution (HBSS), supplemented with NaHCO3 (0.35 g/L), HEPES (5.96 g/L), and glucose (3.5 g/L), adjusted to the desired pH, was used as the transport medium. Cells from passages 41–49 were used.
(§5) After confirming TEER, R14 working solution (10 µM) was added to either the apical or basolateral side of the insert, designating that side as the donor compartment, while the opposite side served as the receiver compartment. Samples (200 µL) were collected from both the apical (A) and basolateral (B) sides at 0, 0.5, 1, 2, and 4 h. The removed volume was immediately replaced with either fresh R14 working solution (on the donor side) or fresh buffer (on the receiver side) to maintain consistent volume and drug concentration throughout the experiment.
(§6) For analysis, 100 µL of acetonitrile containing 0.6% formic acid and internal standard was added to each collected sample. After vortexing and centrifugation, the supernatant was analyzed using UHPLC-MS/MS for R14 quantification.
(§7) The apparent permeability coefficient (P, cm/s) was calculated using the following equation: P=dQ/dt/A·C0 where dQ/dt is the permeability rate of drug appearance in the receiver compartment (µmol/s), A is the surface area of the cell monolayer (cm^2), and C0 is the initial concentration in the donor compartment (µmol/mL).
(§8) Permeability was assessed in both directions (apical to basolateral and basolateral to apical), and the efflux ratio was calculated as: Effluxratio=Pb−a/Pa−b where Pa−b is the permeability coefficient from apical to basolateral, and Pb−a is the permeability coefficient from basolateral to apical.

[4] = tested on: Caco-2 cell monolayer; assay: R14 permeability in the Caco-2 cell culture model; format: in vitro ADME; details: R14 10 µM
Procedure: as §3, §4, §5, §6, §7, §8

[5] = cited from earlier work
[6] = set-up: method as in PMID 36924633; details: mouse whole blood stored at −70 °C; cited from earlier work
[7] = tested on: MDA-MB-231 tumor; set-up: method as in PMID 42013846; details: oral R14 vs vehicle controls; cited from earlier work
[8] = R14 incubation in rat whole blood; format: in vitro ADME; details: R14 10 µg/mL, room temperature, 3 days
Procedure: Previously, we observed the complete disappearance of R14 from mouse whole blood samples after being stored for 10 days in a −70 °C freezer, raising concerns about its stability under typical storage conditions. To further investigate the degradation and potential metabolic transformation of R14 in whole blood, we spiked rat whole blood with R14 (10 µg/mL) and left it at room temperature for 3 days. Room temperature incubation allows for ongoing enzymatic and non-enzymatic processes, providing insight into R14’s metabolic stability and degradation pathways under physiologically relevant but uncontrolled conditions. After incubation, a 4X volume of methanol containing 0.5% formic acid was added to the samples, followed by vortexing for 3 min and centrifugation to obtain supernatant prior to metabolite identification using the UHPLC coupled with quadrupole time-of-flight tandem mass spectrometry (UHPLC-QTOF MS/MS).
as §2, with “analysis. […]” for “analysis.”

[9] = male, Sprague Dawley, iv, i.v. 5 mg/kg, rat plasma, n = 3, mean ± SD
[10] = male, Sprague Dawley, rat, plasma, iv, i.v. 5 mg/kg, rats, n = 3, mean ± SD
[11] = male, Sprague Dawley, rat, plasma, oral 50 mg/kg, rats, n = 3, mean ± SD
[12] = male, Sprague Dawley, oral 50 mg/kg, rat plasma, n = 3, mean ± SD

In the case of `Cc1ccccc1-n1sc2cc(F)ccc2c1=O` [Metabolite R14, 6-Fluoro-2-(2-methylphenyl)-1,2-benzothiazol-3(2H)-one], the AUC(0-inf) [1, 9] is reported as 1810 ± 444 ng·h/mL, the AUC(0-t) [1, 9] is reported as 1580 ± 477 ng·h/mL and the MRT [1, 10] is reported as 1.63 ± 0.39 h. The half-life [1, 10] was 5.39 ± 0.94 h, the clearance ([1]; male, Sprague Dawley, rat, plasma, iv, i.v. 5 mg/kg, rats, n = 3, mean ± SD, read-out: CL (systemic clearance) (converted)) was 43.8 mL/min/kg and the Vd ([1]; male, Sprague Dawley, rat, plasma, iv, i.v. 5 mg/kg, rats, n = 3, mean ± SD, read-out: Vd (volume of distribution)) was 20.7 ± 6.11 L/kg. It also gave a bioavailability ([1]; male, Sprague Dawley, rat, plasma, oral, 50 mg/kg, oral 50 mg/kg vs i.v. 5 mg/kg, rats, read-out: F% (absolute oral bioavailability)) of 13.4%, an MRT [1, 11] of 2.82 ± 0.5 h and a half-life [1, 11] of 2.99 ± 1.41 h. The CL/F ([1]; male, Sprague Dawley, rat, plasma, oral 50 mg/kg, rats, n = 3, mean ± SD, read-out: CL/F (apparent clearance) (converted)) was 367 mL/min/kg, the Vd/F ([1]; male, Sprague Dawley, rat, plasma, oral 50 mg/kg, rats, n = 3, mean ± SD, read-out: Vd/F (apparent volume of distribution)) was 93.3 ± 38.1 L/kg and the Tmax ([1]; male, Sprague Dawley, oral 50 mg/kg, rat plasma, n = 3) was 0.5 h. The AUC(0-inf) [1, 12] was 2430 ± 344 ng·h/mL, the Cmax [1, 12] was 1150 ± 201 ng/mL and the AUC(0-t) [1, 12] was 2080 ± 255 ng·h/mL. The “F% (absolute oral bioavailability)” value ([1]; oral 50 mg/kg vs i.v. 5 mg/kg, rats) was 13.38%, the “Cumulative excretion in 24 h urine as fraction of total amount of R14 and its metabolites” value [2] was “Less than 1%” and the Papp A→B at 4 h, 10 µM ([3]; n = 3, read-out: Pa−b (apical-to-basolateral permeability)) was 6.39 ± 0.6 ×10⁻⁶ cm/s. For the same compound, the Papp B→A at 4 h, 10 µM ([3]; n = 3, read-out: Pb−a (basolateral-to-apical permeability)) was 6.41 ± 1.15 ×10⁻⁶ cm/s, the efflux ratio at 4 h, 10 µM ([3]; read-out: Efflux ratio (Pb−a/Pa−b)) was 1.12 and the Permeability assessment [4] was “moderate permeability”. The “Solubility in DMSO” value ([5]; DMSO) was 25 mg/mL (≈ 96.4 mM), the Water solubility ([5]; water) was “poorly water soluble” and the “Time to complete disappearance from whole blood samples” value [6] was ≤ 10 days. The Survival [7] was “improved survival” and the Tumor size [7] was “significantly reduced”.

In the case of `Cc1ccccc1N1Sc2cc(F)ccc2C1OC1OC(C(=O)O)C(O)C(O)C1O` (stereo not drawn) [Metabolite M4], the “Source P (detected in plasma)” value [2] is reported as “√”, the “Apparent AUC in plasma relative to total AUC of R14 and all identified metabolites” value ([2]; rat plasma, peak area as relative concentration) is reported as 22.3% and the “Cumulative excretion in 24 h urine as fraction of total amount of R14 and its metabolites” value [2] is reported as 48.4%. The “Source U (detected in urine)” value [2] was “√”.

In the case of `Cc1ccccc1N1Sc2cc(F)ccc2C1O` (stereo not drawn) [Metabolite M1], the “Source P (detected in plasma)” value ([2]; 50 mg/kg) is reported as “low concentrations and relatively low levels and √”, the “Source U (detected in urine)” value [2] is reported as “undetectable” and the “Source B (detected in whole blood incubation)” value [8] is reported as “sole major metabolic product and √”.
